This is an account of results in patent US20230219921A1, “KCNT1 INHIBITORS AND METHODS OF USE” (Praxis Precision Medicines, Inc., priority 2020, published 2023).

Structures are written as SMILES.

The test deals with T1, KCNT1 (KNa1.1, Slack) (Homo sapiens, UniProt Q5JUK3).
T1 construct: expressed in transfected cells; host or cells: HEK-TREX (tetracycline-inducible HEK cell line)
T1 sequence (Q5JUK3 1-1230): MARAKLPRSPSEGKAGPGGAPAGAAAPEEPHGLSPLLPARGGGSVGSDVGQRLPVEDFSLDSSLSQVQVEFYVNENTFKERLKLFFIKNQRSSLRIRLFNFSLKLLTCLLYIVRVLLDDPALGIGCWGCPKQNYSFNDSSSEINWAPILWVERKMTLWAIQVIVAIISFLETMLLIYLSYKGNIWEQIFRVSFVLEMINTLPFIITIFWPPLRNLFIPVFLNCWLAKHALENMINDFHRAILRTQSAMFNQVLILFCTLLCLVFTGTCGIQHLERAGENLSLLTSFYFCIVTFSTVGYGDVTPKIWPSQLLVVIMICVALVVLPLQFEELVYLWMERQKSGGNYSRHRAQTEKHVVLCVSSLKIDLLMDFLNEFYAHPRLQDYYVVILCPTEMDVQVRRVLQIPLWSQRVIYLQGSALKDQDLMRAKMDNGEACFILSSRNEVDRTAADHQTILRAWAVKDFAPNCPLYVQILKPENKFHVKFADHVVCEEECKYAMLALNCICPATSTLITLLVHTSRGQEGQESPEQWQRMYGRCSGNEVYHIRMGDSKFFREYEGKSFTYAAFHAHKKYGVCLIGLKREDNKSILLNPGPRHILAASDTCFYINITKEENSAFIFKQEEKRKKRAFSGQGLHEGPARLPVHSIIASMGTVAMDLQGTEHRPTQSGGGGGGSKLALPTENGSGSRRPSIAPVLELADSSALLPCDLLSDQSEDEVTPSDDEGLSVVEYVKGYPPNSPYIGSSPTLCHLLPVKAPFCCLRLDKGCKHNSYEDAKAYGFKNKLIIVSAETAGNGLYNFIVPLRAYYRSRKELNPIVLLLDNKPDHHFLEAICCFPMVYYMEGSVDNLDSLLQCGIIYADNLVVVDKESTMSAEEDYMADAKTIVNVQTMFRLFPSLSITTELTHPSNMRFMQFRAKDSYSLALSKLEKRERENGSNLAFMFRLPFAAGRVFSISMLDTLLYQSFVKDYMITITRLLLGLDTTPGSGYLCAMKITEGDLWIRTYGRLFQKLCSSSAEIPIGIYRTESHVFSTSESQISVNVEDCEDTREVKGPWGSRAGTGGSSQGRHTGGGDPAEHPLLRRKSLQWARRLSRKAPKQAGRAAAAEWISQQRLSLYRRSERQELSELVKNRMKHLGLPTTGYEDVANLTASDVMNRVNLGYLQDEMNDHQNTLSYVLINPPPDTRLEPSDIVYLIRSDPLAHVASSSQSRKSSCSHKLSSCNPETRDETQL
The test is described as follows: KCNT1 patch clamp assay (SyncroPatch 384PE automated patch clamp). The format is cell-based. As to conditions: tetracycline inducible cell line (HEK-TREX); perforated patch mode; step from -80 mV to 0 mV; room temperature; read-out: KCNT1-WT IC50. As to the method: Inhibition of KCNT1 (KNa1.1, Slack) was evaluated using a tetracycline inducible cell line (HEK-TREX). Currents were recorded using the SyncroPatch 384PE automated, patch clamp system. Pulse generation and data collection were performed with PatchController384 V1.3.0 and DataController384 V1.2.1 (Nanion Technologies). The access resistance and apparent membrane capacitance were estimated using built-in protocols. Current were recorded in perforated patch mode (10 μM escin) from a population of cells. The cells were lifted, triturated, and resuspended at 800,000 cells/ml. The cells were allowed to recover in the cell hotel prior to experimentation. Currents were recorded at room temperature. The external solution contained the following (in mM): NaCl 105, NMDG 40, KCl 4, MgCl2 1, CaCl2 5 and HEPES 10 (pH=7.4, Osmolarity ˜300 mOsm). The extracellular solution was used as the wash, reference and compound delivery solution. The internal solution contained the following (in mM): NaCl 70, KF 70, KCl 10, EGTA 5, HEPES 5 and Escin 0.01 (pH=7.2, Osmolarity ˜295 mOsm). Escin is made at a 5 mM stock in water, aliquoted, and stored at −20° C. The compound plate was created at 2× concentrated in the extracellular solution. The compound was diluted to 1:2 when added to the recording well. The amount of DMSO in the extracellular solution was held constant at the level used for the highest tested concentration. A holding potential of −80 mV with a 100 ms step to 0 mV was used. Mean current was measured during the step to 0 mV. […] The average mean current from 3 sweeps was calculated and the % inhibition of each compound was calculated. The % Inhibition as a function of the compound concentration was fit with a Hill equation to derive IC50, slope, min and max parameters. If KCNT1 inhibition was less than 50% at the highest tested concentration or if an IC50 could not be calculated, then a percent inhibition was reported in place of the IC50.
In this table, “A” indicates IC50 of less than or equal to 1 μM; “B” indicates inhibition of between 1 μM to 20 μM; and “C” indicates inhibition of greater than or equal to 20 μM.
(In general: In patch-clamp work, channel activity is measured electrically.)

By IC50 is commonly meant the point on the concentration scale where inhibition reaches its midpoint. `CNS(=O)(=O)c1ccc(C(=O)NCc2ccc(N3CCCC3)cc2)s1` [Compound 30, 5-(N-methylsulfamoyl)-N-(4-(pyrrolidin-1-yl)benzyl)thiophene-2-carboxamide]: the concentration for half-maximal inhibition (IC50) is no less than 20 µM. The figure for `CS(=O)(=O)c1ccc(C(=O)NCc2ccc(C3CC3)cc2)s1` [Compound 31, N-(4-cyclopropylbenzyl)-5-(methylsulfonyl)thiophene-2-carboxamide] is no more than 1 µM; for `CC(C)(C)c1ccc(CNC(=O)c2ccc(S(C)(=O)=O)s2)cc1` [Compound 32, N-(4-(tert-butyl)benzyl)-5-(methylsulfonyl)thiophene-2-carboxamide] it is no more than 1 µM; for `CS(=O)(=O)c1ccc(C(=O)NCc2ccc(C(F)(F)F)cc2)s1` [Compound 33, 5-(methylsulfonyl)-N-(4-(trifluoromethyl)benzyl)thiophene-2-carboxamide] it is no more than 1 µM. Then `CS(=O)(=O)c1ccc(C(=O)NCc2ccc(OCC(F)(F)F)cc2)s1` [Compound 34, 5-(methylsulfonyl)-N-(4-(2,2,2-trifluoroethoxy)benzyl)thiophene-2-carboxamide], with 1 to 20 µM.

As for `CNS(=O)(=O)c1ccc(C(=O)NCc2ccc(OCC(F)(F)F)cc2)s1` [Compound 35, 5-(N-methylsulfamoyl)-N-(4-(2,2,2-trifluoroethoxy)benzyl)thiophene-2-carboxamide], the 50% inhibitory concentration (IC50) fell in the range of 1 to 20 µM. Then `CNS(=O)(=O)c1ccc(C(=O)NCc2ccc(C3(C(F)(F)F)CC3)cc2)s1` [Compound 36, 5-(N-methylsulfamoyl)-N-(4-(1-(trifluoromethyl)cyclopropyl)benzyl)thiophene-2-carboxamide], with no more than 1 µM; and `CS(=O)(=O)c1ccc(C(=O)NCc2ccc(C3(C(F)(F)F)CC3)cc2)s1` [Compound 37, 5-(methylsulfonyl)-N-(4-(1-(trifluoromethyl)cyclopropyl)benzyl)thiophene-2-carboxamide], with no more than 1 µM; and `CNS(=O)(=O)c1ccc(C(=O)NCc2ccc(C(C)(C)C#N)cc2)s1` [Compound 38, N-(4-(2-cyanopropan-2-yl)benzyl)-5-(N-methylsulfamoyl)thiophene-2-carboxamide], with 1 to 20 µM. Take `CC(C)(C#N)c1ccc(CNC(=O)c2ccc(S(C)(=O)=O)s2)cc1` [Compound 39, N-(4-(2-cyanopropan-2-yl)benzyl)-5-(methylsulfonyl)thiophene-2-carboxamide]: the IC50 was in the range of 1 to 20 µM. Turning to `CNS(=O)(=O)c1ccc(C(=O)NCc2ccc(NC(C)C)cc2)s1` [Compound 40, N-(4-(isopropylamino)benzyl)-5-(N-methylsulfamoyl)thiophene-2-carboxamide], the IC50 was no less than 20 µM.

In the case of `CC(C)Nc1ccc(CNC(=O)c2ccc(S(C)(=O)=O)s2)cc1` [Compound 41, N-(4-(isopropylamino)benzyl)-5-(methylsulfonyl)thiophene-2-carboxamide], the half-maximal inhibitory concentration (IC50) was no less than 20 µM.

`CS(=O)(=O)c1ccc(C(=O)NCc2ccc(C(F)(F)F)cc2F)s1` [Compound 42, N-(2-fluoro-4-(trifluoromethyl)benzyl)-5-(methylsulfonyl)thiophene-2-carboxamide]: the IC50 is no more than 1 µM. The figure for `CNS(=O)(=O)c1ccc(C(=O)NCc2ccc(C(F)(F)F)cc2F)s1` [Compound 43, N-(2-fluoro-4-(trifluoromethyl)benzyl)-5-(N-methylsulfamoyl)thiophene-2-carboxamide] is no more than 1 µM; for `Cc1cc(C(F)(F)F)ccc1CNC(=O)c1ccc(S(C)(=O)=O)s1` [Compound 44, N-(2-methyl-4-(trifluoromethyl)benzyl)-5-(methylsulfonyl)thiophene-2-carboxamide] it is no more than 1 µM; for `CNS(=O)(=O)c1ccc(C(=O)NCc2ccc(C(F)(F)F)cc2C)s1` [Compound 45, N-(2-methyl-4-(trifluoromethyl)benzyl)-5-(N-methylsulfamoyl)thiophene-2-carboxamide] it is no more than 1 µM. The figure for `CS(=O)(=O)c1ccc(C(=O)NCc2ccc(C(F)(F)F)nc2)s1` [Compound 46, 5-(methylsulfonyl)-N-((6-(trifluoromethyl)pyridin-3-yl)methyl)thiophene-2-carboxamide] is 1 to 20 µM; for `O=C(NCc1ccc(C(F)(F)F)cc1)c1ccc(S(=O)(=O)C2CC2)s1` [Compound 47, 5-(cyclopropylsulfonyl)-N-(4-(trifluoromethyl)benzyl)thiophene-2-carboxamide] it is no more than 1 µM. Then `CS(=O)(=O)c1ccc(C(=O)NCc2ccc(C(F)(F)F)cn2)s1` [Compound 48, 5-(methylsulfonyl)-N-((5-(trifluoromethyl)pyridin-2-yl)methyl)thiophene-2-carboxamide], with 1 to 20 µM; and `CCS(=O)(=O)c1ccc(C(=O)NCc2ccc(C(F)(F)F)cc2)s1` [Compound 49, 5-(ethylsulfonyl)-N-(4-(trifluoromethyl)benzyl)thiophene-2-carboxamide], with no more than 1 µM.

Take `CC(C)S(=O)(=O)c1ccc(C(=O)NCc2ccc(C(F)(F)F)cc2)s1` [Compound 50, 5-(isopropylsulfonyl)-N-(4-(trifluoromethyl)benzyl)thiophene-2-carboxamide]: the IC50 is no more than 1 µM. The figure for `CS(=O)(=O)c1ccc(C(=O)NCc2ccc(C(F)F)cc2)s1` [Compound 51, N-(4-(difluoromethyl)benzyl)-5-(methylsulfonyl)thiophene-2-carboxamide] is no more than 1 µM; for `COCCS(=O)(=O)c1ccc(C(=O)NCc2ccc(C(F)(F)F)cc2)s1` [Compound 52, 5-((2-methoxyethyl)sulfonyl)-N-(4-(trifluoromethyl)benzyl)thiophene-2-carboxamide] it is no more than 1 µM; for `Cc1cc(C(F)F)ccc1CNC(=O)c1ccc(S(C)(=O)=O)s1` [Compound 53, N-(4-(difluoromethyl)-2-methylbenzyl)-5-(methylsulfonyl)thiophene-2-carboxamide] it is no more than 1 µM. Then `Cc1cc(C(F)(F)F)ncc1CNC(=O)c1ccc(S(C)(=O)=O)s1` [Compound 54, N-((4-methyl-6-(trifluoromethyl)pyridin-3-yl)methyl)-5-(methylsulfonyl)thiophene-2-carboxamide], with 1 to 20 µM.
